The source of these data is patent US10300074B2, “Use of inhibitor of apoptosis protein (IAP) antagonists in HIV therapy” (Sanford-Burnham Medical Research Institute, priority 2014, dated 2019).

One assay concerns the target XIAP BIR3 (Homo sapiens (Human), UniProt P98170). Kind of assay: XIAP BIR3 Ki. Type of assay: binding.
The target of the next assay is XIAP BIR1/2 (Homo sapiens (Human), UniProt P98170). Put plainly: XIAP BIR1/2 Ki. Type of assay: binding.
Another assay concerns the target ML-IAP (Homo sapiens (Human), UniProt Q96CA5). Put plainly: ML-IAP Ki. Type of assay: binding.
Assay [1] has as its system latently infected JLat 10.6 cells. Particulars: in combination with Compound 35, 24 hours.

Structures are written as SMILES.

XIAP BIR1/2, sequence (P98170 1-240): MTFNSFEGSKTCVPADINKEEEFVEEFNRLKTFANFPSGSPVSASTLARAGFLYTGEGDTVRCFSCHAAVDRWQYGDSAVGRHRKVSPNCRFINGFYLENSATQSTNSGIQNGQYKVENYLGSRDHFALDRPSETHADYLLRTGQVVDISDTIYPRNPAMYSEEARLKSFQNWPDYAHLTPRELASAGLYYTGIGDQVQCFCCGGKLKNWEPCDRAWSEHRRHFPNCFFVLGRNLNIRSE
ML-IAP, sequence (Q96CA5 whole entry): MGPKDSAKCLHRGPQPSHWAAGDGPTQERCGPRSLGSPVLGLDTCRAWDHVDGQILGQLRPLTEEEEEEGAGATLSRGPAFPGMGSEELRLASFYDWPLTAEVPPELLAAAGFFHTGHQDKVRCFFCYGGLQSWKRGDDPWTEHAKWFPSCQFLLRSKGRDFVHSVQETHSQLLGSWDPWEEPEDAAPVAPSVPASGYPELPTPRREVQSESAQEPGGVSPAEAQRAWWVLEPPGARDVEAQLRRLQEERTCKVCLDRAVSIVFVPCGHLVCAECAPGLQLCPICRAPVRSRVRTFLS
XIAP BIR3, sequence (P98170 241-356): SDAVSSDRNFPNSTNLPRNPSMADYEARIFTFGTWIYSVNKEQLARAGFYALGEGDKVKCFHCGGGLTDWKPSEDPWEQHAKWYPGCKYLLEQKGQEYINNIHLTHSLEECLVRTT

As usually defined, the Ki is a measure of affinity in units of concentration, obtained from inhibition or displacement. Higher therefore signals lower affinity. As for `CN[C@@H](C)C(=O)N[C@H]1CCO[C@H]2CC(C)(C)C(C(=O)N[C@@H]3CCCc4ccccc43)N2C1=O` (some centres unmarked) [Compound 17b], the Ki at XIAP BIR3 (Table 2-2), at XIAP BIR1/2 (Table 2-2) and at ML-IAP (Table 2-2) was no more than 25 µM throughout.

Take `CN[C@@H](C)C(=O)N[C@H]1CCO[C@H]2c3ccccc3C(C(=O)N[C@@H]3CCCc4ccccc43)N2C1=O` (some centres unmarked) [Compound 17a]: the results for the Ki on XIAP BIR3 (Table 2-2), on XIAP BIR1/2 (Table 2-2) and at ML-IAP (Table 2-2) were no more than 25 µM, greater than 50 µM and no more than 25 µM, respectively.

As to `CN[C@@H](C)C(=O)N[C@H]1CCS[C@H]2CC[C@H](C(=O)N[C@@H]3CCCc4ccccc43)N2C1=O` [Compound 36], the Ki is no more than 25 µM at XIAP BIR3 (Table B-1), greater than 50 µM on XIAP BIR1/2 (Table B-1) and no more than 25 µM at ML-IAP (Table B-1).

In the case of `CN[C@@H](C)C(=O)N[C@H]1CCO[C@H]2CC3(CC=CC3)C(C(=O)N[C@@H]3CCCc4ccccc43)N2C1=O` (some centres unmarked) [Compound 42], the Ki on XIAP BIR3 (Table B-1), at XIAP BIR1/2 (Table B-1) and on ML-IAP (Table B-1) was no more than 25 µM each time.

For `CN[C@@H](C)C(=O)N[C@H]1CCO[C@H]2CCC(C(=O)N[C@@H]3CCCc4ccccc43)N2C1=O` (some centres unmarked) [Compound 12], the values for the Ki on XIAP BIR3 (Table B-1), at XIAP BIR1/2 (Table B-1) and on ML-IAP (Table B-1) were no more than 25 µM, greater than 50 µM and no more than 25 µM, respectively.

Take `Cc1[nH]c2ccccc2c1CCNCc1ccc(/C=C/C(=O)NO)cc1` [Panobinostat, panobinostat]: the “Activation of HIV transcription, combination versus components alone” value in assay [1] was “greater effect than treatment with any of the components alone”.

Consider `CN[C@@H](C)C(=O)N[C@H]1CCO[C@H]2CC[C@@H](C(=O)N[C@@H]3CCOc4ccccc43)N2C1=O` [Compound 32], for which the Ki was no more than 25 µM at XIAP BIR3 (Table B-1), greater than 50 µM at XIAP BIR1/2 (Table B-1) and no more than 25 µM at ML-IAP (Table B-1).

With `CN[C@@H](C)C(=O)N[C@H]1CCO[C@H]2CC(C)(C)[C@@H](C(=O)N[C@@H]3CCCc4ccccc43)N2C1=O` [Compound 26], the Ki at XIAP BIR3 (Table B-1), at XIAP BIR1/2 (Table B-1) and at ML-IAP (Table B-1) was no more than 25 µM throughout.

`CN[C@@H](C)C(=O)N[C@@H]1C(=O)N2C(C(=O)NC3CCCc4ccccc43)CC[C@@H]2O[C@@H]1C` (some centres unmarked) [Compound 10]: the inhibitory constant (Ki) at XIAP BIR3 (Table B-1) was no more than 25 µM; on XIAP BIR1/2 (Table B-1), greater than 50 µM; on ML-IAP (Table B-1), no more than 25 µM.

As for `CN[C@@H](C)C(=O)N[C@H]1CC(=O)N[C@H]2CC(C)(C)C(C(=O)N[C@@H]3CCCc4ccccc43)N2C1=O` (some centres unmarked) [Compound 46], the figures for the Ki on XIAP BIR3 (Table B-1), on XIAP BIR1/2 (Table B-1) and on ML-IAP (Table B-1) were no more than 25 µM, greater than 50 µM and no more than 25 µM, respectively.

On to `CN[C@@H](C)C(=O)N[C@H]1CCO[C@H]2CCC(C(=O)NC(c3ccccc3)c3ccccc3)N2C1=O` (some centres unmarked) [Compound 14], for which the Ki on XIAP BIR3 (Table B-1) is no more than 25 µM; at XIAP BIR1/2 (Table B-1), greater than 50 µM; on ML-IAP (Table B-1) it was no more than 25 µM.

Turning to `CN[C@@H](C)C(=O)N[C@H]1CCS[C@H]2CCC(C(=O)N[C@@H]3CCCc4ccccc43)N2C1=O` (some centres unmarked) [Compound 24], the Ki on XIAP BIR3 (Table B-1) is no more than 25 µM; on XIAP BIR1/2 (Table B-1) it was greater than 50 µM; at ML-IAP (Table B-1), no more than 25 µM.

With `CC(=O)NCCCCCCNC(C)=O` [HMBA, hexamethylbisacetamide], the “Activation of HIV transcription, combination versus components alone” value in assay [1] is “greater effect than treatment with any of the components alone”.

As to `CN[C@@H](C)C(=O)N[C@H]1CCS[C@H]2CC[C@@H](C(=O)N[C@@H]3CCCc4ccccc43)N2C1=O` [Compound 34], the figures for the Ki at XIAP BIR3 (Table B-1), on XIAP BIR1/2 (Table B-1) and at ML-IAP (Table B-1) were no more than 25 µM, greater than 50 µM and no more than 25 µM, respectively.

In the case of `CN[C@@H](C)C(=O)N[C@H]1CCO[C@H]2CC[C@@H](C(=O)N[C@@H]3CCCc4ccccc43)N2C1=O` [Compound 33], the Ki at XIAP BIR3 (Table B-1) is no more than 25 µM; on XIAP BIR1/2 (Table B-1), greater than 50 µM; on ML-IAP (Table B-1), no more than 25 µM.

Consider `CN[C@@H](C)C(=O)N[C@H]1CCO[C@H]2c3ccccc3C(C(=O)N[C@@H]3CCCc4ccccc43)N2C1=O` (some centres unmarked) [Compound 27], for which the Ki at XIAP BIR3 (Table B-1) is no more than 25 µM; at XIAP BIR1/2 (Table B-1) it was greater than 50 µM; at ML-IAP (Table B-1), no more than 25 µM.
